Here are results for two molecules from publication PMC5918173, “Characterization of Transglutaminase 2 activity inhibitors in monocytes in vitro and their effect in a mouse model for multiple sclerosis” (PLoS ONE, 2018).

In this assay the target is T1, human TG2 in THP-1/TG2 macrophages (Homo sapiens, UniProt P21980).
T1 construct: expressed in transfected cells; host or cells: THP-1 (TIB-202, ATCC) stably transduced with lentiviral pCDH-hTG2, PMA-differentiated, retinoic acid-stimulated
T1 sequence (P21980 1-687): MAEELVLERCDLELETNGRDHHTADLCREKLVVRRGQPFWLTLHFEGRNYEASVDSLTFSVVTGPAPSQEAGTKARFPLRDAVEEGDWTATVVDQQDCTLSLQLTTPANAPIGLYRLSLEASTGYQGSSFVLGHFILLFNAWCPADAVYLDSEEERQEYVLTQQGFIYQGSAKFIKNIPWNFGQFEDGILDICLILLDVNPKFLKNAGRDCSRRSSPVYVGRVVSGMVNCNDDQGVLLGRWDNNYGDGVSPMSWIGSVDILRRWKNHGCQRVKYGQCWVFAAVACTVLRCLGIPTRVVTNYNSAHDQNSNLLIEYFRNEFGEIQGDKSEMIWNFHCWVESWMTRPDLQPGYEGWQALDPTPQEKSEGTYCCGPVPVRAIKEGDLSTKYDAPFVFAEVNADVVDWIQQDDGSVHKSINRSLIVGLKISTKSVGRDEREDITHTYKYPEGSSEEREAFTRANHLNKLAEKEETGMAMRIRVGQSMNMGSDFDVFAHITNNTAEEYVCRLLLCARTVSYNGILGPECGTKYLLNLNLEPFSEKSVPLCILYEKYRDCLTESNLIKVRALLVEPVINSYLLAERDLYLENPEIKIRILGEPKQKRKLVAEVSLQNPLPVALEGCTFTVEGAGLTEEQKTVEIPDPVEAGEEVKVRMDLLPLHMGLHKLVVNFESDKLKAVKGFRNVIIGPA
Put plainly: Cellular inhibition of TG activity in THP-1/TG2 cells (BAP incorporation). As to conditions: TG2 overexpressing THP-1 macrophages, Fig 2D. Type of assay: cell-based. Here is the method: Human monocytic THP-1 cells (TIB-202, ATCC) were transduced with a lentiviral vector (pCDH-hTG2, gift from Prof K. Mehta, University of Texas, USA) to overexpress human TG2, to ensure high protein levels in addition to their constitutive expression that can be inhibited. To obtain a stable TG2 overexpressing cell line, transduced cells (THP-1/pCDH-hTG2 (THP-1/TG2)) were positively selected with puromycin and cultured at 37°C and 5% CO2 in air in RPMI-1640 medium (Gibco) supplemented with 10% fetal calf serum (FCS; Gibco), and 50 Units/ml of penicillin and 50 μg/ml streptomycin (Gibco).
THP-1/TG2 cells cultured with 3% FCS were differentiated into macrophages with 250 nM phorbol-12-myristate-13-acetate (Sigma) for 48 h hours. Simultaneously, the cells were stimulated with 1 μM retinoic acid (Fluka) as TG2 expression inducer to ensure maximal TG2 expression and activity. The in vitro TG activity inhibition assay was performed as previously described. In detail, the cells were washed with serum free medium and incubated for 4 h (37°C, 5% CO2) with 1 mM of the TG substrate 5-(biotinamido) pentylamine (BAP, Pierce) in serum free medium. […] The total protein concentration was determined with the BCA method (Pierce, according to protocol) and adjusted to the same concentration in all samples. […] The optical density at 492 nm was measured.

A word on the IC50: it is the concentration at which inhibition is half-maximal. With `C=CC(=O)NC1CCN(S(=O)(=O)c2cccc3c(NC(=O)c4ccc(OC)c(OC)c4)cccc23)CC1` [BJJF078, 3,4-Dimethoxy-N-(5-[4-(acryloylamino)piperidine-1-sulfonyl]-naphthalen-1-yl)-benzamide], the IC50 (read-out: IC50 cellular TG2 transamidating activity) is 1800 nM.

Consider `O=C(NCC1CC(Br)=NO1)C1CCCN1C(=O)OCc1cnc2ccccc2c1` (centres unmarked) [ERW1041E, 2-[(3-Bromo-4,5-dihydro-isoxazol-5-ylmethyl)-carbamoyl]-pyrrolidine-1—carboxylic acid quinolin-3-ylmethyl ester], for which, for the setting “0.03 to 100 μM”, the “effect on cellular TG2 activity” value is “no effect”.
